Measured values taken from patent US4311698A, “Aminoacid derivatives of cephalosporin compounds” (priority 1980, dated 1982).
In brackets after ≈: the same amount, converted by molar mass. Like-named read-outs stand apart in the source and are kept apart here.

Columns and labels:
Format in all cases: cell-based
E. Coli. Vogel = experiment: In vitro minimal inhibitory concentration, E. Coli. Vogel; conditions: Escherichia coli
Prot Vulg. = experiment: In vitro minimal inhibitory concentration, Prot Vulg.
E. Coli. Brig = experiment: In vitro minimal inhibitory concentration, E. Coli. Brig; conditions: Escherichia coli
Entero Cloac. IM 11 = experiment: In vitro minimal inhibitory concentration, Entero Cloac. IM 11
Strep. fec. MGH 2 = experiment: In vitro minimal inhibitory concentration, Strep. fec. MGH 2
Staph UC76 = experiment: In vitro minimal inhibitory concentration, Staph UC76
Pseudomonas #28 = experiment: In vitro minimal inhibitory concentration, Pseudomonas #28; conditions: read-out: Minimal Inhibitory Concentration
Pseudomonas BRK 12-4-4 = experiment: In vitro minimal inhibitory concentration, Pseudomonas BRK 12-4-4; conditions: BRK1244
Staph S 18713 = experiment: In vitro minimal inhibitory concentration, Staph S 18713
Klebs. Pneum. MGH 2 = experiment: In vitro minimal inhibitory concentration, Klebs. Pneum. MGH 2
Pseudomonas UI 18 = experiment: In vitro minimal inhibitory concentration, Pseudomonas UI 18; conditions: UI18
Serr. Mar. IMM 16 = experiment: In vitro minimal inhibitory concentration, Serr. Mar. IMM 16

Work on `CC(=O)N[C@@H](CCC(N)=O)C(=O)Nc1ccc(-c2ccc(C(=O)N[C@@H](C(=O)NC3C(=O)N4C(C(=O)O)=C(CSc5nnnn5CS(=O)(=O)O)CSC34)c3ccccc3)c(=O)[nH]2)cc1` (stereo partly drawn) [Example 42, N-[6-[4-(N-Acetyl-L-glutaminylamino)phenyl]-1,2-dihydro-2-oxonicotinyl]-7-[D-2-amino-2-phenylacetamido]-3-[[(1-sulfomethyl-1H-tetrazol-5-yl)thio]methyl]-3-cephem-4-carboxylic acid] yielded an MIC (E. Coli. Vogel) of 0.8 µg/mL (≈ 0.866 µM), an MIC (Prot Vulg.) of 3.1 µg/mL (≈ 3.36 µM) and an MIC (E. Coli. Brig) of 6.3 µg/mL (≈ 6.82 µM). For the same compound, the MIC (Entero Cloac. IM 11) was 6.3 µg/mL (≈ 6.82 µM), the MIC (Strep. fec. MGH 2) was > 50 µg/mL and the MIC (Staph UC76) was 6.3 µg/mL (≈ 6.82 µM). For the same compound, the MIC (Pseudomonas #28; Pseudomonas) was 12.5 µg/mL (≈ 13.5 µM), the MIC (Pseudomonas BRK 12-4-4) was 6.3 µg/mL (≈ 6.82 µM) and the MIC (Staph S 18713) was 12.5 µg/mL (≈ 13.5 µM). For the same compound, the MIC (Klebs. Pneum. MGH 2) was 3.1 µg/mL (≈ 3.36 µM), the MIC (Pseudomonas UI 18) was 6.3 µg/mL (≈ 6.82 µM) and the MIC (Serr. Mar. IMM 16) was 12.5 µg/mL (≈ 13.5 µM).
For `CC(=O)N1CCC[C@H]1C(=O)Nc1ccc(-c2ccc(C(=O)N[C@@H](C(=O)NC3C(=O)N4C(C(=O)O)=C(CSc5nnnn5C)CSC34)c3ccccc3)c(=O)[nH]2)cc1` (stereo partly drawn) [Example 2, N-[6-[4-(N-Acetyl-L-prolylamino)phenyl]-1,2-dihydro-2-oxonicotinyl]-7-[D-2-amino-2-phenylacetamido]-3-[[(1-methyl-1H-tetrazol-5-yl)thio]methyl]-3-cephem-4-carboxylic acid], the MIC (E. Coli. Vogel) was 1.6 µg/mL (≈ 1.97 µM), the MIC (Prot Vulg.) was 25 µg/mL (≈ 30.8 µM) and the MIC (E. Coli. Brig) was 6.3 µg/mL (≈ 7.75 µM). The MIC (Entero Cloac. IM 11) was 6.3 µg/mL (≈ 7.75 µM), the MIC (Strep. fec. MGH 2) was 25 µg/mL (≈ 30.8 µM) and the MIC (Staph UC76) was 0.8 µg/mL (≈ 0.984 µM). It also gave an MIC (Pseudomonas #28; Pseudomonas #28, in vitro) of 12.5 µg/mL (≈ 15.4 µM), an MIC (Pseudomonas BRK 12-4-4) of 25 µg/mL (≈ 30.8 µM) and an MIC (Staph S 18713) of 3.1 µg/mL (≈ 3.81 µM). The MIC (Klebs. Pneum. MGH 2) was 1.6 µg/mL (≈ 1.97 µM), the MIC (Pseudomonas UI 18) was 12.5 µg/mL (≈ 15.4 µM) and the MIC (Serr. Mar. IMM 16) was 12.5 µg/mL (≈ 15.4 µM).
`CC(=O)N[C@H](C)C(=O)Nc1ccc(-c2ccc(C(=O)N[C@@H](C(=O)NC3C(=O)N4C(C(=O)O)=C(CSc5nnnn5C)CSC34)c3ccc(O)cc3)c(=O)[nH]2)cc1` (stereo partly drawn) [Example 25, N-[6-[4(N-Acetyl-D-alanylamino)phenyl]-1,2-dihydro-2-oxonicotinyl]-7-[D-2-amino-2-(4-hydroxyphenyl)acetamido]-3-[[(1-methyl-1H-tetrazol-5-yl)thio]methyl]-3-cephem-4-carboxylic acid] was tested, and the MIC (E. Coli. Vogel) was 0.8 µg/mL (≈ 0.996 µM), the MIC (Prot Vulg.) was 6.3 µg/mL (≈ 7.85 µM) and the MIC (E. Coli. Brig) was 3.1 µg/mL (≈ 3.86 µM). It also gave an MIC (Entero Cloac. IM 11) of 1.6 µg/mL (≈ 1.99 µM), an MIC (Strep. fec. MGH 2) of 12.5 µg/mL (≈ 15.6 µM) and an MIC (Staph UC76) of 1.6 µg/mL (≈ 1.99 µM). It also gave an MIC (Pseudomonas #28; Pseudomonas #28, in vitro) of 3.1 µg/mL (≈ 3.86 µM), an MIC (Pseudomonas BRK 12-4-4) of 3.1 µg/mL (≈ 3.86 µM) and an MIC (Staph S 18713) of 6.3 µg/mL (≈ 7.85 µM). For the same compound, the MIC (Klebs. Pneum. MGH 2) was 1.6 µg/mL (≈ 1.99 µM), the MIC (Pseudomonas UI 18) was 3.1 µg/mL (≈ 3.86 µM) and the MIC (Serr. Mar. IMM 16) was 12.5 µg/mL (≈ 15.6 µM).
With `CC(=O)N[C@H](CC(N)=O)C(=O)Nc1ccc(-c2ccc(C(=O)N[C@@H](C(=O)NC3C(=O)N4C(C(=O)O)=C(CSc5nnnn5C)CSC34)c3ccccc3)c(=O)[nH]2)cc1` (stereo partly drawn) [Example 23, N-[6-[4-(N-Acetyl-D-asparaginylamino)phenyl]-1,2-dihydro-2-oxonicotinyl]-7-[D-2-amino-2-phenylacetamido]-3-[[(1-methyl-1H-tetrazol-5-yl)thio]methyl]-3-cephem-4-carboxylic acid] the MIC (E. Coli. Vogel) was 0.8 µg/mL (≈ 0.964 µM), the MIC (Prot Vulg.) was 12.5 µg/mL (≈ 15.1 µM) and the MIC (E. Coli. Brig) was 3.1 µg/mL (≈ 3.74 µM). For the same compound, the MIC (Entero Cloac. IM 11) was 6.3 µg/mL (≈ 7.59 µM), the MIC (Strep. fec. MGH 2) was 25 µg/mL (≈ 30.1 µM) and the MIC (Staph UC76) was 0.8 µg/mL (≈ 0.964 µM). For the same compound, the MIC (Pseudomonas #28; Pseudomonas #28, in vitro) was 12.5 µg/mL (≈ 15.1 µM), the MIC (Pseudomonas BRK 12-4-4) was 6.3 µg/mL (≈ 7.59 µM) and the MIC (Staph S 18713) was 6.3 µg/mL (≈ 7.59 µM). For the same compound, the MIC (Klebs. Pneum. MGH 2) was 1.6 µg/mL (≈ 1.93 µM), the MIC (Pseudomonas UI 18) was 6.3 µg/mL (≈ 7.59 µM) and the MIC (Serr. Mar. IMM 16) was 25 µg/mL (≈ 30.1 µM).
`CC(=O)OCC1=C(C(=O)O)N2C(=O)C(NC(=O)[C@H](NC(=O)c3ccc(-c4ccc(NC(=O)C5CCCN5C(C)=O)cc4)[nH]c3=O)c3ccccc3)C2SC1` (mixture of isomers) [Example 17, N-[6-[4-(N-Acetyl-DL-prolylamino)phenyl]-1,2-dihydro-2-oxonicotinyl]-7-[D-2-amino-2-phenylacetamido]-3-acetoxymethyl-3-cephem-4-carboxylic acid] gave an MIC (E. Coli. Vogel) of 3.1 µg/mL, an MIC (Prot Vulg.) of 25 µg/mL and an MIC (E. Coli. Brig) of 25 µg/mL. For the same compound, the MIC (Entero Cloac. IM 11) was 25 µg/mL, the MIC (Strep. fec. MGH 2) was 50 µg/mL and the MIC (Staph UC76) was 1.6 µg/mL. It also gave an MIC (Pseudomonas #28; Pseudomonas #28, in vitro) of 12.5 µg/mL, an MIC (Pseudomonas BRK 12-4-4) of 25 µg/mL and an MIC (Staph S 18713) of 3.1 µg/mL. It also gave an MIC (Klebs. Pneum. MGH 2) of 12.5 µg/mL, an MIC (Pseudomonas UI 18) of 12.5 µg/mL and an MIC (Serr. Mar. IMM 16) of 50 µg/mL.
Work on `CC(=O)N[C@@H](C)C(=O)Nc1ccc(-c2ccc(C(=O)N[C@@H](C(=O)NC3C(=O)N4C(C(=O)O)=C(COC(C)=O)CSC34)c3ccccc3)c(=O)[nH]2)cc1` (stereo partly drawn) [Example 5, N-[6-[4-(N-Acetyl-L-alanylamino)phenyl]-1,2-dihydro-2-oxonicotinyl]-6-[D-2-amino-2-phenylacetamido]-3-acetoxymethyl-3-cephem-4-carboxylic acid] yielded an MIC (E. Coli. Vogel) of 1.6 µg/mL (≈ 2.19 µM), an MIC (Prot Vulg.) of 25 µg/mL (≈ 34.2 µM) and an MIC (E. Coli. Brig) of 12.5 µg/mL (≈ 17.1 µM). It also gave an MIC (Entero Cloac. IM 11) of 12.5 µg/mL (≈ 17.1 µM), an MIC (Strep. fec. MGH 2) of 25 µg/mL (≈ 34.2 µM) and an MIC (Staph UC76) of 0.8 µg/mL (≈ 1.09 µM). For the same compound, the MIC (Pseudomonas #28; Pseudomonas #28, in vitro) was 6.3 µg/mL (≈ 8.62 µM), the MIC (Pseudomonas BRK 12-4-4) was 12.5 µg/mL (≈ 17.1 µM) and the MIC (Staph S 18713) was 1.6 µg/mL (≈ 2.19 µM). For the same compound, the MIC (Klebs. Pneum. MGH 2) was 12.5 µg/mL (≈ 17.1 µM), the MIC (Pseudomonas UI 18) was 6.3 µg/mL (≈ 8.62 µM) and the MIC (Serr. Mar. IMM 16) was 50 µg/mL (≈ 68.4 µM).
For `CC(=O)OCC1=C(C(=O)O)N2C(=O)C(NC(=O)[C@H](NC(=O)c3ccc(-c4ccc(NC(=O)[C@@H]5CCC(=O)N5)cc4)[nH]c3=O)c3ccccc3)C2SC1` (stereo partly drawn) [Example 6, N-[6-[4-(L-Pyroglutamylamino)phenyl]-1,2-dihydro-2-oxonicotinyl]-7-[D-2-amino-2-phenylacetamido]-3-acetoxymethyl-3-cephem-4-carboxylic acid], the MIC (E. Coli. Vogel) was 3.1 µg/mL (≈ 4.25 µM), the MIC (Prot Vulg.) was 25 µg/mL (≈ 34.3 µM) and the MIC (E. Coli. Brig) was 25 µg/mL (≈ 34.3 µM). The MIC (Entero Cloac. IM 11) was 12.5 µg/mL (≈ 17.2 µM), the MIC (Strep. fec. MGH 2) was 25 µg/mL (≈ 34.3 µM) and the MIC (Staph UC76) was 0.8 µg/mL (≈ 1.1 µM). It also gave an MIC (Pseudomonas #28; Pseudomonas #28, in vitro) of 12.5 µg/mL (≈ 17.2 µM), an MIC (Pseudomonas BRK 12-4-4) of 12.5 µg/mL (≈ 17.2 µM) and an MIC (Staph S 18713) of 3.1 µg/mL (≈ 4.25 µM). It also gave an MIC (Klebs. Pneum. MGH 2) of 6.3 µg/mL (≈ 8.65 µM), an MIC (Pseudomonas UI 18) of 6.3 µg/mL (≈ 8.65 µM) and an MIC (Serr. Mar. IMM 16) of 50 µg/mL (≈ 68.6 µM).
